Data as given in ChEMBL document CHEMBL4483862, “Open-source discovery of chemical leads for next-generation chemoprotective antimalarials” (2018).

System: Plasmodium berghei
Experiment: Luciferase/luciferin-expressing antifolate-resistant parasites were used to infect a culture of HepG2 cells that were pre-incubated with compounds. Infected hepatocytes emit light due to the luciferase reaction. Assay results are presented as the percent inhibition of light emission compared to control. […]
Assay type: functional
Conditions: sporozoite; for IC90: read-out: LUCIFERASE INFECTION ASSAY - IC90

Compound | IC90 | other results
COc1ccc(-n2nc(C)c3c(O)c4c(nc32)CCCC4)cc1 | > 10.7 µM | IC50 (HEPG2TOX_HILL_SLOPE 2.37, HEPG2TOX_R_SQUARED 0.552, read-out: LUCIFERASE INFECTION ASSAY - IC50): > 10.7 µM
Cc1cc(C(C)(C)C)cc(C)c1COC(=O)c1cccnc1 | > 10 µM | IC50 (HEPG2TOX_HILL_SLOPE 2.37, HEPG2TOX_R_SQUARED 0.0156, PBLUC_HILL_SLOPE 8.85, PBLUC_R_SQUARED 0.304, read-out: LUCIFERASE INFECTION ASSAY - IC50): 8.03 µM
CN(C(=O)CSc1nnc(COc2ccccc2F)n1N)C1CCCCC1 | 6.57 µM | IC50 (HEPG2TOX_HILL_SLOPE 2.33, HEPG2TOX_R_SQUARED 0.96, PBLUC_HILL_SLOPE 2.14, PBLUC_R_SQUARED 0.67, read-out: LUCIFERASE INFECTION ASSAY - IC50): 2.35 µM
CCCNc1nccn2c(-c3ccc(C(=O)NC4CC4)cc3)cnc12 | 7.31 µM | IC50 (HEPG2TOX_HILL_SLOPE 2.37, HEPG2TOX_R_SQUARED 0.851, PBLUC_HILL_SLOPE 7.04, PBLUC_R_SQUARED 0.366, read-out: LUCIFERASE INFECTION ASSAY - IC50): 5.35 µM
CC(=O)Nc1ncc2c(Cl)cccc2n1 | > 14.9 µM | IC50 (HEPG2TOX_HILL_SLOPE 2.36, HEPG2TOX_R_SQUARED 0.885, PBLUC_HILL_SLOPE 2.93, PBLUC_R_SQUARED 0.162, read-out: LUCIFERASE INFECTION ASSAY - IC50): 7.84 µM
CCCNc1ccc2ncc(-c3ccc(OC)c(OC)c3)n2n1 | 2.73 µM | IC50 (HEPG2TOX_HILL_SLOPE 2.36, HEPG2TOX_R_SQUARED 0.919, PBLUC_HILL_SLOPE 2.02, PBLUC_R_SQUARED 0.782, read-out: LUCIFERASE INFECTION ASSAY - IC50): 0.918 µM
N#Cc1ccsc1NC(=O)COC(=O)c1c2c(nc3ccccc13)/C(=C/c1cccc([N+](=O)[O-])c1)CCC2 | > 10 µM | IC50 (HEPG2TOX_HILL_SLOPE 2.36, HEPG2TOX_R_SQUARED 0.622, PBLUC_HILL_SLOPE 3.04, PBLUC_R_SQUARED 0.408, read-out: LUCIFERASE INFECTION ASSAY - IC50): 7.71 µM
CNC(=O)N(C1=NCC(C)(C)S1)c1cccc(C(F)(F)F)c1 | > 9.96 µM | IC50 (HEPG2TOX_HILL_SLOPE 2.33, HEPG2TOX_R_SQUARED 0.841, PBLUC_HILL_SLOPE 2.51, PBLUC_R_SQUARED 0.0629, read-out: LUCIFERASE INFECTION ASSAY - IC50): 7.95 µM
CN(Cc1ccc(C(N)=O)cc1)c1ncnc2ccccc12 | 1.53 µM | IC50 (HEPG2TOX_HILL_SLOPE 2.36, HEPG2TOX_R_SQUARED 0.863, PBLUC_HILL_SLOPE 14.7, PBLUC_R_SQUARED 0.585, read-out: LUCIFERASE INFECTION ASSAY - IC50): 1.32 µM
CC(C)(C)OC(=O)N1CCc2nc(NC(=O)c3ccc(Cl)cc3F)sc2C1 | 8.96 µM | IC50 (HEPG2TOX_HILL_SLOPE 2.37, HEPG2TOX_R_SQUARED 0.812, PBLUC_HILL_SLOPE 3.49, PBLUC_R_SQUARED 0.436, read-out: LUCIFERASE INFECTION ASSAY - IC50): 4.77 µM
COc1cccc(CN(C)c2ncnc3sc(C)c(C)c23)c1OC | 3.84 µM | IC50 (HEPG2TOX_HILL_SLOPE 2.36, HEPG2TOX_R_SQUARED 0.798, PBLUC_HILL_SLOPE 15.6, PBLUC_R_SQUARED 0.417, read-out: LUCIFERASE INFECTION ASSAY - IC50): 3.34 µM
OCc1ccc(-c2ccc3ncc(-c4cccc(CO)c4)n3n2)cc1 | 2.83 µM | IC50 (HEPG2TOX_HILL_SLOPE 2.34, HEPG2TOX_R_SQUARED 0.973, PBLUC_HILL_SLOPE 2.94, PBLUC_R_SQUARED 0.59, read-out: LUCIFERASE INFECTION ASSAY - IC50): 1.34 µM
CC(C)(C)c1ccc(NC(=O)c2ccc(CCNS(C)(=O)=O)cc2)cc1 | 3.46 µM | IC50 (HEPG2TOX_HILL_SLOPE 2.32, HEPG2TOX_R_SQUARED 0.971, PBLUC_HILL_SLOPE 55.7, PBLUC_R_SQUARED 0.572, read-out: LUCIFERASE INFECTION ASSAY - IC50): 3.32 µM
O=C(c1cccc(-c2ccncc2)c1)c1cnc(Nc2cccc(Br)c2)[nH]1 | 2.54 µM | IC50 (HEPG2TOX_HILL_SLOPE 2.34, HEPG2TOX_R_SQUARED 0.815, PBLUC_HILL_SLOPE 3.59, PBLUC_R_SQUARED 0.729, read-out: LUCIFERASE INFECTION ASSAY - IC50): 1.38 µM
O=C(NCc1cccs1)C1Cc2c(-c3ccccc3)ccnc2O1 (centres undefined) | 6.65 µM | IC50 (HEPG2TOX_HILL_SLOPE 2.36, HEPG2TOX_R_SQUARED 0.977, PBLUC_HILL_SLOPE 2.08, PBLUC_R_SQUARED 0.632, read-out: LUCIFERASE INFECTION ASSAY - IC50): 2.31 µM
Cc1cc(C)nc(NNC(=S)NC(=O)C23CC4CC(CC(C4)C2)C3)n1 | 3.62 µM | IC50 (HEPG2TOX_HILL_SLOPE 2.34, HEPG2TOX_R_SQUARED 0.811, PBLUC_HILL_SLOPE 12, PBLUC_R_SQUARED 0.36, read-out: LUCIFERASE INFECTION ASSAY - IC50): 3.01 µM

Compound | IC90 | other results
CCc1cc(=O)n2ncc(-c3ccc(Cl)cc3)c2[nH]1 | 3.53 µM | IC50 (HEPG2TOX_HILL_SLOPE 2.33, HEPG2TOX_R_SQUARED 0.563, PBLUC_HILL_SLOPE 7.25, PBLUC_R_SQUARED 0.422, read-out: LUCIFERASE INFECTION ASSAY - IC50): 2.61 µM
COc1ccc(F)cc1-c1ccnc2n[nH]c(-c3ccc(Cl)cc3)c12 | > 10 µM | IC50 (HEPG2TOX_HILL_SLOPE 2.34, HEPG2TOX_R_SQUARED 0.976, PBLUC_HILL_SLOPE 1.09, PBLUC_R_SQUARED 0.396, read-out: LUCIFERASE INFECTION ASSAY - IC50): 1.84 µM
CC1CCc2sc(C(=O)N/N=C/c3ccc(Cl)cc3Cl)cc2C1 (centres undefined) | 5.01 µM | IC50 (HEPG2TOX_HILL_SLOPE 2.35, HEPG2TOX_R_SQUARED 0.954, PBLUC_HILL_SLOPE 8.15, PBLUC_R_SQUARED 0.258, read-out: LUCIFERASE INFECTION ASSAY - IC50): 3.82 µM
CN(C)c1cccc(Nc2nccc3[nH]c(-c4cccc(F)c4)cc23)c1 | 1.41 µM | IC50 (HEPG2TOX_HILL_SLOPE 2.36, HEPG2TOX_R_SQUARED 0.936, PBLUC_HILL_SLOPE 7.91, PBLUC_R_SQUARED 0.783, read-out: LUCIFERASE INFECTION ASSAY - IC50): 1.07 µM
O=S(=O)(c1ccc(Cl)c(NC(=S)N/N=C/c2ccc(O)cc2O)c1)N1CCOCC1 | 8.73 µM | IC50 (HEPG2TOX_HILL_SLOPE 2.35, HEPG2TOX_R_SQUARED 0.922, PBLUC_HILL_SLOPE 5.37, PBLUC_R_SQUARED 0.597, read-out: LUCIFERASE INFECTION ASSAY - IC50): 5.8 µM
OCc1ccccc1-c1cn2c(-c3ccc4c(c3)OCO4)cnc2cn1 | > 9.56 µM | IC50 (HEPG2TOX_HILL_SLOPE 2.34, HEPG2TOX_R_SQUARED 0.695, PBLUC_HILL_SLOPE 2.89, PBLUC_R_SQUARED 0.35, read-out: LUCIFERASE INFECTION ASSAY - IC50): 8.14 µM
OCc1cccc(-c2cnc3ccc(-c4ccc(F)cc4)nn23)c1 | 6.8 µM | IC50 (HEPG2TOX_HILL_SLOPE 2.34, HEPG2TOX_R_SQUARED 0.934, PBLUC_HILL_SLOPE 3.16, PBLUC_R_SQUARED 0.564, read-out: LUCIFERASE INFECTION ASSAY - IC50): 3.39 µM
N#Cc1ccc(CNC(=S)Nc2ccc(Cl)c(Cl)c2)cc1 | 9.71 µM | IC50 (HEPG2TOX_HILL_SLOPE 2.37, HEPG2TOX_R_SQUARED 0.471, PBLUC_HILL_SLOPE 2.37, PBLUC_R_SQUARED 0.613, read-out: LUCIFERASE INFECTION ASSAY - IC50): 3.85 µM
COc1cc(OC)cc(-c2cnc3cnc(-c4ccc(Cl)cc4)cn23)c1 | 8.07 µM | IC50 (HEPG2TOX_HILL_SLOPE 2.36, HEPG2TOX_R_SQUARED 0.458, PBLUC_HILL_SLOPE 2.59, PBLUC_R_SQUARED 0.445, read-out: LUCIFERASE INFECTION ASSAY - IC50): 3.46 µM
CC(C)(C)CC(C)(C)NC(=O)c1cccc(S(=O)(=O)N2CCc3ccccc32)c1 | > 10 µM | IC50 (HEPG2TOX_HILL_SLOPE 2.33, HEPG2TOX_R_SQUARED 0.906, PBLUC_HILL_SLOPE 19.2, PBLUC_R_SQUARED 0.577, read-out: LUCIFERASE INFECTION ASSAY - IC50): 9.58 µM
COc1cc(C(O)(c2nc3ccccc3s2)C(F)(F)F)c(OC)cc1N (centres undefined) | > 10 µM | IC50 (HEPG2TOX_HILL_SLOPE 2.34, HEPG2TOX_R_SQUARED 0.875, PBLUC_HILL_SLOPE 2.52, PBLUC_R_SQUARED 0.408, read-out: LUCIFERASE INFECTION ASSAY - IC50): 6.31 µM
Cc1ccc2nc(NC(=O)c3ccccc3C)c(C(=O)NCC(C)C)n2c1 | 9 µM | IC50 (HEPG2TOX_HILL_SLOPE 2.35, HEPG2TOX_R_SQUARED 0.51, PBLUC_HILL_SLOPE 14.9, PBLUC_R_SQUARED 0.347, read-out: LUCIFERASE INFECTION ASSAY - IC50): 7.76 µM
Cc1cc(N(Cc2ccc(C(C)C)cc2)C2CC2)n2ncnc2n1 | > 10 µM | IC50 (HEPG2TOX_HILL_SLOPE 2.35, HEPG2TOX_R_SQUARED 0.908, PBLUC_HILL_SLOPE 2.49, PBLUC_R_SQUARED 0.764, read-out: LUCIFERASE INFECTION ASSAY - IC50): 4.95 µM
CC(C)(C)c1ccc(-c2ccc(OCCN3CCOCC3)nc2)cc1 | > 9.69 µM | IC50 (HEPG2TOX_HILL_SLOPE 2.33, HEPG2TOX_R_SQUARED 0.966, PBLUC_HILL_SLOPE 2.69, PBLUC_R_SQUARED 0.584, read-out: LUCIFERASE INFECTION ASSAY - IC50): 4.35 µM
CC(C)(C)NC(=S)Nc1ccccc1N1CCCCC1 | > 11.3 µM | IC50 (HEPG2TOX_HILL_SLOPE 2.33, HEPG2TOX_R_SQUARED 0.936, read-out: LUCIFERASE INFECTION ASSAY - IC50): > 11.3 µM
CC1CC1c1ccc(/C=C/C(=O)NNC(=S)NCC2CCCO2)o1 (centres undefined) | 3.79 µM | IC50 (HEPG2TOX_HILL_SLOPE 2.34, HEPG2TOX_R_SQUARED 0.989, PBLUC_HILL_SLOPE 14.4, PBLUC_R_SQUARED 0.432, read-out: LUCIFERASE INFECTION ASSAY - IC50): 3.25 µM
